From patent US11591323B2, “Muscarinic agonists as non-steroidal and non-opioid analgesics and methods of use thereof” (Barry University, priority 2019, dated 2023)
Read-outs that look alike come from different tables or passages of the source.

Target: T1, M1 muscarinic receptor (Homo sapiens, UniProt P11229)
T1 sequence (P11229 1-460): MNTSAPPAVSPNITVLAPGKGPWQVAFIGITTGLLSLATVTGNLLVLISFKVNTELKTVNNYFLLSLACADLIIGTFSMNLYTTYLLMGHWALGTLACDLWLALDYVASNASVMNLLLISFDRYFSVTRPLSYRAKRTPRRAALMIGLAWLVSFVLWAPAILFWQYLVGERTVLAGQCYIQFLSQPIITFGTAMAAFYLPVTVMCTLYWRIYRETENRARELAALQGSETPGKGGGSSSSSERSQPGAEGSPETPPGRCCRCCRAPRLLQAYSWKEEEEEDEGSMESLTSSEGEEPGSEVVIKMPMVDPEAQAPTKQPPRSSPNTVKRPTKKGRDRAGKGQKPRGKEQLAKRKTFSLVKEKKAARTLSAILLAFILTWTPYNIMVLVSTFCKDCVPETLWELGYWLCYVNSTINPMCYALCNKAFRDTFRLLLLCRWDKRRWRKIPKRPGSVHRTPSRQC
Assay: stimulation of cAMP, M1 CHO cells (M1Gs)
Format: cell-based
Parameters: host or cells: CHO cells, stably transfected
Description: Since activation of phospholipase C (PLC) via M2 and M4 receptors is weak, cells were transferred with G15 G-protein to facilitate coupling.
To determine level of cAMP, cells in suspension were pre-incubated for 1 h with 0.4 μM [^3H]adenine, washed, and incubated for 10 min in the presence of isobutylmethylxanthine and 10 μM forskolin. […] Incubation was ended by addition of 0.2 ml of 2.5 M HCl to the samples. Samples were applied to alumina columns (1.5 g of alumina per column), washed with 2 ml ammonium acetate (pH=7.0) and eluted from columns with 4 ml ammonium acetate and measured by liquid scintillation spectrometry. […] The incubation was stopped by addition of 0.5 ml of chloroform methanol HCl mixture (2:1:0.1). After separation of water and organic phases, 0.6 ml of water phase was applied to Dowex columns (1.5 g of Dowex per column), washed by 20 ml of 60 mM ammonium formate/5 mM sodium borate buffer and eluted from columns with 4 ml of 1M ammonium formate/0.1 formic acid buffer and measured by liquid scintillation spectrometry.
Measurements of the production of cAMP and inositol phosphates: Levels of second messengers cAMP and inositol phosphates were determined in radiochemical chromatography assays as described previously. To determine level of cAMP, cells in suspension were pre-incubated for 1 h with 0.4 μM [^3H]adenine, washed, and incubated for 10 min in the presence of isobutylmethylxanthine and 10 μM forskolin. […] Incubation was ended by addition of 0.2 ml of 2.5 M HCl to the samples. Samples were applied to alumina columns (1.5 g of alumina per column), washed with 2 ml ammonium acetate (pH=7.0) and eluted from columns with 4 ml ammonium acetate and measured by liquid scintillation spectrometry. […] For this purpose, new CHO cell lines stably expressing promiscuous G15 G-protein and M2 or M4 receptor were generated by transfection with pCMV/hygro vector and hygromycin selection. To determine the rate of formation of inositol phosphates IPX, suspended cells were pre-incubated with 0.1 μM [^3H]myo-inositol for 60 min, washed, and incubated with 10 mM LiCl for 15 min. […] The incubation was stopped by addition of 0.5 ml of chloroform methanol HCl mixture (2:1:0.1). After separation of water and organic phases, 0.6 ml of water phase was applied to Dowex columns (1.5 g of Dowex per column), washed by 20 ml of 60 mM ammonium formate/5 mM sodium borate buffer and eluted from columns with 4 ml of 1M ammonium formate/0.1 formic acid buffer and measured by liquid scintillation spectrometry.
For bi-phasic response, curves were inhibitory and stimulatory phase were fitted separately. Operational Model of Functional Agonism
[formula] where y is functional response at concentration of tested compound x, EMAX is maximal response of the system, KA is equilibrium dissociation constant and nH is slope factor. Eq. 5 was fitted to data from functional experiments. Eq. 5 was fitted to data by the two-step procedure described earlier. […] In the second step, Eq. 5 with EMAX fixed to the value determined in the first step was fitted to individual experimental data sets. Relative Intrinsic Activity
Muscarinic receptors are also able to stimulate non-preferential signalling pathways.

[1] = M1Gs (↑cAMP), Table 8, relative to carbachol

Structure (SMILES)	RAi [1]	EC50 [µM]	E′MAX [fold increase]	Kd [µM]	RAi	Δlog(τ/KA)	τ
C1=CCN(Cc2cccs2)CC1.Cl [Compound 6A, 1-[(thiophen-2-yl)methyl]-1,2,3,6-tetrahydropyridin-1-ium chloride]	0	–	–	–	–	–	–
C[N+]1(Cc2cccs2)CC=CCC1.[I-] (centres unmarked) [Compound 7A, 1-methyl-1-[(thiophen-2-yl)methyl]-1,2,3,6-tetrahydropyridin-1-ium iodide]	0	–	–	–	–	–	–
O=C1CCCN1CC#CCN1CCCC1 [oxotremorine, reference compound]	–	11.2	1.77 ± 0.08	15.8	3.91 ± 0.22	−0.59 ± 0.06	0.38 ± 0.04
